Reference: ChEMBL document CHEMBL5518181, “Studies of antibacterial activity (in vitro and in vivo) and mode of action for des-acyl tridecaptins (DATs)” (Eur J Med Chem, 2024)
In brackets after ≈: the same amount, converted by molar mass. Activity calls are given as the source filed them. No cut-off for these calls is given here.

Experiments:
Escherichia coli [1] = assay: Antibacterial activity against wild-type Escherichia coli ATCC 25922 assessed as inhibition of bacterial growth incubated for 18 hrs; type: functional; conditions: read-out: MIC100
Klebsiella pneumoniae [2] = assay: Antibacterial activity against wild-type Klebsiella pneumoniae ATCC 13883 assessed as inhibition of bacterial growth incubated for 18 hrs; type: functional; conditions: read-out: MIC100
[3] = Hemolytic activity in human red blood cells at 400 ug/ml incubated for 45 mins by spectrophotometric analysis relative to control; type: toxicity, cell-based, Erythrocyte; conditions: red blood cells (erythrocytes), at 400 µg/mL, read-out: Activity
[4] = Cytotoxicity against human HepG2 cells incubated for 40 hrs by celltiter-glo luminescent cell viability assay; type: toxicity, cell-based
Escherichia coli [5] = assay: Antibacterial activity against wild-type Escherichia coli ATCC 25922 assessed as inhibition of bacterial growth incubated for 18 hrs in presence of 50% heat inactivated human serum; type: functional; conditions: read-out: MIC100
Escherichia coli [6] = assay: Antibacterial activity against Escherichia coli ATCC 25922 harboring hldE knock-out assessed as inhibition of bacterial growth incubated for 18 hrs; type: functional; conditions: read-out: MIC100
Escherichia coli [7] = assay: Antibacterial activity against Escherichia coli ATCC 25922 harboring tolC knock-out assessed as inhibition of bacterial growth incubated for 18 hrs; type: functional; conditions: read-out: MIC100
Klebsiella pneumoniae [8] = assay: Antibacterial activity against wild-type Klebsiella pneumoniae ATCC 13883 assessed as inhibition of bacterial growth incubated for 18 hrs in presence of 50% heat inactivated human serum; type: functional; conditions: read-out: MIC100
Acinetobacter baumannii = assay: Antibacterial activity against wild-type Acinetobacter baumannii ATCC 19606 assessed as inhibition of bacterial growth incubated for 20 hrs; type: functional; conditions: read-out: MIC100
Pseudomonas aeruginosa [9] = assay: Antibacterial activity against wild-type Pseudomonas aeruginosa PAO1 assessed as inhibition of bacterial growth incubated for 24 hrs; type: functional; conditions: read-out: MIC100
Staphylococcus aureus [10] = assay: Antibacterial activity against […] assessed as inhibition of bacterial growth incubated for 18 hrs; type: functional; conditions: ATCC 29213, read-out: MIC100
[11] = Hydrophobicity of compound assessed as %MeCN at peak elution by RP-HPLC analysis; type: physicochemical
[12] = Lipophilicity, logD of compound at pH 7.4; type: physicochemical; conditions: buffer
[13] = Aqueous solubility of compound at pH 4.6; type: physicochemical
[14] = Aqueous solubility of compound at pH 7.4; type: physicochemical
[15] = Clearance in mouse microsomes; type: ADME, Microsome
[16] = Clearance in rat microsomes; type: ADME, Microsome
[17] = Clearance in human microsomes; type: ADME, Microsome
Citrobacter freundii = assay: Antibacterial activity against Citrobacter freundii ATCC 8090 assessed as inhibition of bacterial growth incubated for 18 hrs; type: functional; conditions: read-out: MIC100
Klebsiella pneumoniae [18] = assay: Antibacterial activity against Klebsiella pneumoniae ATCC BAA-2470 expressing NDM-1 assessed as inhibition of bacterial growth incubated for 18 hrs; type: functional; conditions: read-out: MIC100
Klebsiella pneumoniae [19] = assay: Antibacterial activity against Klebsiella pneumoniae ATCC 43816 assessed as inhibition of bacterial growth incubated for 18 hrs; type: functional; conditions: read-out: MIC100
Klebsiella aerogenes = assay: Antibacterial activity against Enterobacter aerogenes ATCC 13048 assessed as inhibition of bacterial growth incubated for 18 hrs; type: functional; conditions: read-out: MIC100
Enterobacter cloacae = assay: Antibacterial activity against Enterobacter cloacae ATCC 23355 assessed as inhibition of bacterial growth incubated for 18 hrs; type: functional; conditions: read-out: MIC100
Escherichia coli [20] = assay: Antibacterial activity against Escherichia coli ATCC BAA-2469 expressing NDM-1 assessed as inhibition of bacterial growth incubated for 18 hrs; type: functional; conditions: read-out: MIC100
Escherichia coli [21] = assay: Antibacterial activity against colistin resistant Escherichia coli NCTC 13846 harboring mcr-1 gene assessed as inhibition of bacterial growth incubated for 18 hrs; type: functional; conditions: read-out: MIC100
Morganella morganii = assay: Antibacterial activity against Morganella morganii ATCC 25830 assessed as inhibition of bacterial growth incubated for 18 hrs; type: functional; conditions: read-out: MIC100
Proteus mirabilis [22] = assay: Antibacterial activity against Proteus mirabilis ATCC 25933 assessed as inhibition of bacterial growth incubated for 18 hrs; type: functional; conditions: read-out: MIC100
Proteus mirabilis [23] = assay: Antibacterial activity against Proteus mirabilis ATCC 7002 assessed as inhibition of bacterial growth incubated for 18 hrs; type: functional; conditions: read-out: MIC100
Providencia stuartii = assay: Antibacterial activity against Providencia stuartii ATCC 25826 assessed as inhibition of bacterial growth incubated for 18 hrs; type: functional; conditions: read-out: MIC100
Salmonella typhimurium = assay: Antibacterial activity against Salmonella typhimurium ATCC 13311 assessed as inhibition of bacterial growth incubated for 18 hrs; type: functional, Salmonella enterica subsp. enterica serovar Typhimurium; conditions: Salmonella enterica, read-out: MIC100
Serratia marcescens = assay: Antibacterial activity against intrinsically colistin resistant Serratia marcescens ATCC 13880 assessed as inhibition of bacterial growth incubated for 18 hrs; type: functional; conditions: read-out: MIC100
Pseudomonas aeruginosa [24] = assay: Antibacterial activity against efflux-deficient Pseudomonas aeruginosa PAO750 assessed as inhibition of bacterial growth incubated for 18 hrs; type: functional; conditions: read-out: MIC100
Staphylococcus aureus [25] = assay: Antibacterial activity against wild type Staphylococcus aureus USA300 assessed as inhibition of bacterial growth incubated for 18 hrs; type: functional; conditions: read-out: MIC100
Escherichia coli [26] = assay: Antibacterial activity against Escherichia coli ATCC 25922 assessed as inhibition of bacterial growth incubated for 18 hrs in presence of 150 mM NaCl; type: functional, organism-based
Escherichia coli [27] = assay: Antibacterial activity against Escherichia coli ATCC 25922 assessed as inhibition of bacterial growth incubated for 18 hrs in presence of 5 mM KCl; type: functional, organism-based
Escherichia coli [28] = assay: Antibacterial activity against Escherichia coli ATCC 25922 assessed as inhibition of bacterial growth incubated for 18 hrs in presence of 2 mM CaCl2; type: functional, organism-based
Escherichia coli [29] = assay: Antibacterial activity against Escherichia coli ATCC 25922 assessed as inhibition of bacterial growth incubated for 18 hrs in presence of 2 mM MgCl2; type: functional, organism-based
Escherichia coli [30] = assay: Antibacterial activity against Escherichia coli ATCC 25922 assessed as inhibition of bacterial growth incubated for 18 hrs in presence of 25 mM bicarbonate; type: functional, organism-based
Klebsiella pneumoniae [31] = assay: Antibacterial activity against Klebsiella pneumoniae ATCC 13883 assessed as inhibition of bacterial growth incubated for 18 hrs in presence of 150 mM NaCl; type: functional, organism-based
Klebsiella pneumoniae [32] = assay: Antibacterial activity against Klebsiella pneumoniae ATCC 13883 assessed as inhibition of bacterial growth incubated for 18 hrs in presence of 5 mM KCl; type: functional, organism-based
Klebsiella pneumoniae [33] = assay: Antibacterial activity against Klebsiella pneumoniae ATCC 13883 assessed as inhibition of bacterial growth incubated for 18 hrs in presence of 2 mM CaCl2; type: functional, organism-based
Klebsiella pneumoniae [34] = assay: Antibacterial activity against Klebsiella pneumoniae ATCC 13883 assessed as inhibition of bacterial growth incubated for 18 hrs in presence of 2 mM MgCl2; type: functional, organism-based
Klebsiella pneumoniae [35] = assay: Antibacterial activity against Klebsiella pneumoniae ATCC 13883 assessed as inhibition of bacterial growth incubated for 18 hrs in presence of 25 mM bicarbonate; type: functional, organism-based
[36] = Drug uptake in Escherichia coli ATCC 25922 at 10 uM incubated for 10 mins by LC-MS/MS analysis; type: ADME
[37] = Drug localization in cytoplasm of Escherichia coli ATCC 25922 at 10 uM incubated for 10 mins by LC-MS/MS analysis; type: ADME, subcellular
[38] = Drug uptake in Pseudomonas aeruginosa PAO1 whole cells at 10 uM incubated for 10 mins by LC-MS/MS analysis; type: ADME
[39] = Drug uptake in Escherichia coli ATCC 25922 whole cells at 10 uM incubated for 10 mins by LC-MS/MS analysis; type: ADME
[40] = Drug uptake in Acinetobacter baumannii ATCC 19606 whole cells at 10 uM incubated for 10 mins by LC-MS/MS analysis; type: ADME
[41] = Drug uptake in Proteus mirabilis ATCC 7002 whole cells at 10 uM incubated for 10 mins by LC-MS/MS analysis; type: ADME
[42] = Binding affinity to gram negative bacterial lipid II assessed as dissociation constant by ITC analysis; set-up: species or system Bacteria
Lipopolysaccharide (LPS) [43] = assay: Binding affinity to Escherichia coli O55:B5 LPS assessed as dissociation constant by ITC analysis; type: subcellular
Lipopolysaccharide (LPS) [44] = assay: Binding affinity to Pseudomonas aeruginosa LPS assessed as dissociation constant by ITC analysis; type: subcellular
Cell membrane [45] = assay: Induction of membrane permeabilization in Escherichia coli ATCC 25922 at 64 ug/ml measured immediately by Sytox Green labelling based microscopic analysis; type: cell membranes; conditions: dose 64.0 µg/ml
Cell membrane [46] = assay: Induction of membrane permeabilization in Escherichia coli ATCC 25922 at 64 ug/ml measured after 30 mins by Sytox Green labelling based microscopic analysis; type: cell membranes; conditions: dose 64.0 µg/ml
Cell membrane [47] = assay: Induction of membrane permeabilization in Escherichia coli ATCC 25922 at 64 ug/ml measured after 2 hrs by Sytox Green labelling based microscopic analysis; type: cell membranes; conditions: dose 64.0 µg/ml
Cell membrane [48] = assay: Induction of membrane permeabilization in Klebsiella pneumoniae ATCC 13883 at 64 ug/ml measured after 30 mins by Sytox Green labelling based microscopic analysis; type: cell membranes; conditions: dose 64.0 µg/ml
Cell membrane [49] = assay: Induction of membrane permeabilization in Klebsiella pneumoniae ATCC 13883 at 64 ug/ml measured after 2 hrs by Sytox Green labelling based microscopic analysis; type: cell membranes; conditions: dose 64.0 µg/ml

## CC[C@H](C)[C@@H](NC(=O)[C@@H](NC(=O)[C@H](CCC(=O)O)NC(=O)[C@H](Cc1ccccc1)NC(=O)[C@@H](CCN)NC(=O)[C@H](CCN)NC(=O)[C@H](CO)NC(=O)[C@@H](Cc1c[nH]c2ccccc12)NC(=O)[C@@H](CO)NC(=O)CNC(=O)[C@@H](CCN)NC(=O)[C@H](N)C(C)C)C(C)C)C(=O)N[C@@H](C)C(=O)O
Escherichia coli [1]
  MIC: 32 mg/L (≈ 22.9 µM)
Klebsiella pneumoniae [2]
  MIC: 32 mg/L (≈ 22.9 µM)
[3]
  hemolysis at 0.75 h, 400 ug/ml: 3.6%
[4]
  IC50 at 40 h: 76 mg/L (≈ 54.5 µM)
Escherichia coli [5]
  MIC: 32 mg/L
Escherichia coli [6]
  MIC: 8 mg/L (≈ 5.74 µM)
Escherichia coli [7]
  MIC: > 32 mg/L
Klebsiella pneumoniae [8]
  MIC: 8 mg/L
Acinetobacter baumannii
  MIC: 32 mg/L (≈ 22.9 µM)
Pseudomonas aeruginosa [9]
  MIC: > 64 mg/L
Staphylococcus aureus [10]
  MIC: 32 mg/L (≈ 22.9 µM)
[11]
  MeCN percentage at peak elution: 42%
[12]
  logD: 1.09
[13]
  solubility: > 1 mg/mL
[14]
  solubility: > 1 mg/mL
[15]
  microsomal CLint: 25 µL/min/mg
[16]
  microsomal CLint: 108 µL/min/mg
[17]
  microsomal CLint: 22 µL/min/mg
Citrobacter freundii
  MIC: 32 mg/L (≈ 22.9 µM)
Klebsiella pneumoniae [18]
  MIC: 32 mg/L (≈ 22.9 µM)
Klebsiella pneumoniae [19]
  MIC: 8 mg/L (≈ 5.74 µM)
Klebsiella aerogenes
  MIC: > 32 mg/L
Enterobacter cloacae
  MIC: > 32 mg/L
Escherichia coli [20]
  MIC: > 32 mg/L
Escherichia coli [21]
  MIC: 32 mg/L (≈ 22.9 µM)
Morganella morganii
  MIC: > 32 mg/L
Proteus mirabilis [22]
  MIC: > 32 mg/L
Proteus mirabilis [23]
  MIC: > 64 mg/L
Providencia stuartii
  MIC: > 32 mg/L
Salmonella typhimurium
  MIC: > 32 mg/L
Serratia marcescens
  MIC: 32 mg/L (≈ 22.9 µM)
Pseudomonas aeruginosa [24]
  MIC: > 32 mg/L
Staphylococcus aureus [25]
  MIC: > 32 mg/L
Escherichia coli [26]
  Activity: Active
Escherichia coli [27]
  Activity: Active
Escherichia coli [28]
  Activity: Active
Escherichia coli [29]
  Activity: Active
Escherichia coli [30]
  Activity: Active
Klebsiella pneumoniae [31]
  Activity: Active
Klebsiella pneumoniae [32]
  Activity: Active
Klebsiella pneumoniae [33]
  Activity: Active
Klebsiella pneumoniae [34]
  Activity: Active
Klebsiella pneumoniae [35]
  Activity: Active
[36]
  Drug uptake: Active
[37]
  Drug uptake: Active
[38]
  Drug uptake: ~ 60 ng
[39]
  Drug uptake: ~ 60 ng
[40]
  Drug uptake: ~ 60 ng
[41]
  Drug uptake: ~ 60 ng
[42]
  Kd: 0.6 µM
Lipopolysaccharide (LPS) [43]
  Kd: 5.7 µM
Lipopolysaccharide (LPS) [44]
  Kd: 13.5 µM
Cell membrane [45]
  Activity: inactive
Cell membrane [46]
  Activity: inactive
Cell membrane [47]
  Activity: Active
Cell membrane [48]
  Activity: inactive
Cell membrane [49]
  Activity: Active
